Laboratory results from US10683269B2 (MISSION THERAPEUTICS LIMITED, priority 2016, dated 2020).

Target: T1, USP7 (Homo sapiens, UniProt Q93009)
T1 construct: The USP7 construct was PCR amplified and cloned into a pFLAG-CMV-6a vector (Sigma-Aldrich) with an N-terminal FLAG tag; made in house; host or cells: HEK293T
Experiment: USP7 biochemical IC50 assay (fluorescence polarisation, TAMRA labelled peptide linked to ubiquitin via an iso-peptide bond)
Conditions: 30 min pre-incubation of enzyme and compound, read after 2 hr incubation at room temperature, read-out: IC50 range
Procedure, shortened: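 Fluorescence polarisation at 540 nm excitation/590 nm emission, read immediately and after 2 hr at room temperature, following addition of 50 nM TAMRA-labelled iso-peptide ubiquitin substrate.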

T1 sequence (Q93009 whole entry): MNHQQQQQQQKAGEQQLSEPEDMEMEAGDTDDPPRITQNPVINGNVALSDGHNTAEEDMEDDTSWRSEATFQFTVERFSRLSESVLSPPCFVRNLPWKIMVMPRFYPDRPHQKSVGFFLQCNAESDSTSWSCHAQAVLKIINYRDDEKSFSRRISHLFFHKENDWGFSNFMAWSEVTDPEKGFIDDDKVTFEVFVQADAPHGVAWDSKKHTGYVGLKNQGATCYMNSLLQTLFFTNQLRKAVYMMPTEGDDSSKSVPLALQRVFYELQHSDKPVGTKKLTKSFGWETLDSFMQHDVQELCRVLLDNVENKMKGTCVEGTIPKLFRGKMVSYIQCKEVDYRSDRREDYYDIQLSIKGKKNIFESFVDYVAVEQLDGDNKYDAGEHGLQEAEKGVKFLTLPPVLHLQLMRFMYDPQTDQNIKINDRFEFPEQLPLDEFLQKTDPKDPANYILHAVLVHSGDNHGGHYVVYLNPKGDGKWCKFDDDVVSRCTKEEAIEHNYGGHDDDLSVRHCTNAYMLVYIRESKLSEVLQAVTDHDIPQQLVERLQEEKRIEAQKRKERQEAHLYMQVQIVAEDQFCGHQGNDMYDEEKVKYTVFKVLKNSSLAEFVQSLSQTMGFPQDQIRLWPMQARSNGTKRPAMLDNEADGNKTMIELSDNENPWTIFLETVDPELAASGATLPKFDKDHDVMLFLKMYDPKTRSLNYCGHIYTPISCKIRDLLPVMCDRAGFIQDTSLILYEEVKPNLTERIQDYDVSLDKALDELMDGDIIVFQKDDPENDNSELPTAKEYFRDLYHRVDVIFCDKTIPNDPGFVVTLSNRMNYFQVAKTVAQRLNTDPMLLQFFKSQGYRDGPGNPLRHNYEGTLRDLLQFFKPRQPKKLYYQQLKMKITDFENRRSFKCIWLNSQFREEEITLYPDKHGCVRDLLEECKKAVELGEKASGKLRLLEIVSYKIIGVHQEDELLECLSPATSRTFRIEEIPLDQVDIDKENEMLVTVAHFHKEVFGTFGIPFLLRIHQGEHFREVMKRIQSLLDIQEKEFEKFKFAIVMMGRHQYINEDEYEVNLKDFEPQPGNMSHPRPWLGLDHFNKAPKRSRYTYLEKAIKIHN

Structure (SMILES)	IC50
CC(=O)Nc1nc2c(c(N3CCCC3)n1)CN(C#N)C2 [Example 148, N-(6-cyano-4-(pyrrolidin-1-yl)-6,7-dihydro-5H-pyrrolo[3,4-d]pyrimidin-2-yl)acetamide]	10000 to 30000 nM
N#Cc1ccc(-c2cccc3c2CN(C#N)C3)c(C#N)c1 [Example 72, 4-(2-cyanoisoindolin-4-yl)isophthalonitrile]	< 1000 nM
N#CN1Cc2ncnc(-c3cccc(N4CCNC4=O)c3)c2C1 [Example 300, 4-(3-(2-oxoimidazolidin-1-yl)phenyl)-5,7-dihydro-6H-pyrrolo[3,4-c]pyrimidine-6-carbonitrile]	1000 to 10000 nM
CNc1cc2c(c(-c3ccc(C#N)cc3)c1)CN(C#N)C2 [Example 269, 4-(4-cyanophenyl)-6-(methylamino)isoindoline-2-carbonitrile]	1000 to 10000 nM
N#CN1Cc2nc(NCCO)nc(-c3cccc(N4CCOC4=O)c3)c2C1 [Example 292, 2-((2-hydroxyethyl)amino)-4-(3-(2-oxooxazolidin-3-yl)phenyl)-5,7-dihydro-6H-pyrrolo[3,4-d]pyrimidine-6-carbonitrile]	< 1000 nM
N#Cc1cc(F)ccc1-c1cccc2c1CN(C#N)C2 [Example 167, 4-(2-cyano-4-fluorophenyl)isoindoline-2-carbonitrile]	1000 to 10000 nM
CN1CCOC(CNc2nc3c(c(-c4cccc(F)c4)n2)CN(C#N)C3)C1 (centres unmarked) [Example 193, 4-(3-fluorophenyl)-2-(((4-methylmorpholin-2-yl)methyl)amino)-5,7-dihydro-6H-pyrrolo[3,4-d]pyrimidine-6-carbonitrile]	1000 to 10000 nM
CN(CCO)c1nc2c(c(-c3ccccc3)n1)CN(C#N)C2 [Example 190, 2-((2-hydroxyethyl)(methyl)amino)-4-phenyl-5,7-dihydro-6H-pyrrolo[3,4-d]pyrimidine-6-carbonitrile]	1000 to 10000 nM
COc1ccc(C#N)c(-c2cc(NS(C)(=O)=O)cc3c2CN(C#N)C3)c1 [Example 245, N-(2-cyano-7-(2-cyano-5-methoxyphenyl)isoindolin-5-yl)methanesulfonamide]	1000 to 10000 nM
CS(=O)(=O)NCc1cc2c(c(-c3ccc(C#N)cc3)c1)CN(C#N)C2 [Example 222, N-((2-cyano-7-(4-cyanophenyl)isoindolin-5-yl)methyl)methanesulfonamide]	1000 to 10000 nM
CCN1CCOC(C(=O)Nc2cc3c(c(-c4ccccc4)c2)CN(C#N)C3)C1 (centres unmarked) [Example 54, N-(2-cyano-7-phenylisoindolin-5-yl)-4-ethylmorpholine-2-carboxamide]	< 1000 nM
CN(C)Cc1cc2c(c(-c3ccccc3)c1)CN(C#N)C2 [Example 213, 6-((dimethylamino)methyl)-4-phenylisoindoline-2-carbonitrile]	1000 to 10000 nM
N#CN1Cc2nc(-c3ccccc3C(N)=O)nc(N3CCc4ccccc4C3)c2C1 [Example 138, 2-(6-cyano-4-(3,4-dihydroisoquinolin-2(1H)-yl)-6,7-dihydro-5H-pyrrolo[3,4-d]pyrimidin-2-yl)benzamide]	1000 to 10000 nM
N#CN1Cc2nc(NCCO)nc(-c3ccccc3)c2C1 [Example 120, 2-((2-hydroxyethyl)amino)-4-phenyl-5,7-dihydro-6H-pyrrolo[3,4-d]pyrimidine-6-carbonitrile]	1000 to 10000 nM
CN1CCCC(C(=O)Nc2cc3c(c(-c4ccccc4)c2)CN(C#N)C3)C1 (racemic) [Example 36, N-(2-cyano-7-phenylisoindolin-5-yl)-1-methylpiperidine-3-carboxamide]	< 1000 nM
CCNc1nc2c(c(-c3ccccc3C(N)=O)n1)CN(C#N)C2 [Example 123, 2-(6-cyano-2-(ethylamino)-6,7-dihydro-5H-pyrrolo[3,4-c]pyrimidin-4-yl)benzamide]	10000 to 30000 nM

Structure (SMILES)	IC50
COc1cccc(-c2nc3c(c(N4CCCC4)n2)CN(C#N)C3)c1 [Example 136, 2-(3-methoxyphenyl)-4-(pyrrolidin-1-yl)-5,7-dihydro-6H-pyrrolo[3,4-d]pyrimidine-6-carbonitrile]	30000 to 100000 nM
CN1CC(C(=O)Nc2cc3c(c(-c4ccccc4)c2)CN(C#N)C3)CCC1=O (centres unmarked) [Example 44, N-(2-cyano-7-phenylisoindolin-5-yl)-1-methyl-6-oxopiperidine-3-carboxamide]	< 1000 nM
N#CN1Cc2nc(NCCc3ccccn3)nc(-c3ccccc3)c2C1 [Example 114, 4-phenyl-2-((2-(pyridin-2-yl)ethyl)amino)-5,7-dihydro-6H-pyrrolo[3,4-d]pyrimidine-6-carbonitrile]	1000 to 10000 nM
CCNS(=O)(=O)c1ccccc1-c1cccc2c1CN(C#N)C2 [Example 175, 2-(2-cyanoisoindolin-4-yl)-N-ethylbenzenesulfonamide]	1000 to 10000 nM
CNC(=O)c1ccc(-c2cc(NC(=O)[C@@H]3CCCN(C)C3)cc3c2CN(C#N)C3)cc1 [Example 29, (R)-N-(2-cyano-7-(4-(methylcarbamoyl)phenyl)isoindolin-5-yl)-1-methylpiperidine-3-carboxamide]	< 1000 nM
N#CN1Cc2nc(NCC3CCOCC3)nc(N3CCc4ccccc4C3)c2C1 [Example 200, 4-(3,4-dihydroisoquinolin-2(1H)-yl)-2-(((tetrahydro-2H-pyran-4-yl)methyl)amino)-5,7-dihydro-6H-pyrrolo[3,4-d]pyrimidine-6-carbonitrile]	1000 to 10000 nM
N#Cc1ccc(-c2cccc3c2CN(C#N)C3)cc1 [Example 13, 4-(4-cyanophenyl)isoindoline-2-carbonitrile]	1000 to 10000 nM
N#CN1Cc2cccc(-c3ccccc3)c2C1 [Example 6, 4-phenylisoindoline-2-carbonitrile]	1000 to 10000 nM
CC(C)N1CCOC(C(=O)Nc2cc3c(c(-c4ccccc4)c2)CN(C#N)C3)C1 (centres unmarked) [Example 55, N-(2-cyano-7-phenylisoindolin-5-yl)-4-isopropylmorpholine-2-carboxamide]	< 1000 nM
N#CN1Cc2cc(NC(=O)C3CCCNC3)cc(-c3ccccc3)c2C1 (centres unmarked) [Example 62, N-(2-cyano-7-phenylisoindolin-5-yl)piperidine-3-carboxamide]	< 1000 nM
CC(=O)Nc1nc2c(c(-c3cnn(C)c3)n1)CN(C#N)C2 [Example 107, N-(6-cyano-4-(1-methyl-1H-pyrazol-4-yl)-6,7-dihydro-5H-pyrrolo[3,4-d]pyrimidin-2-yl)acetamide]	10000 to 30000 nM
COc1ccccc1-c1nc2c(c(N3CCCC3)n1)CN(C#N)C2 [Example 135, 2-(2-methoxyphenyl)-4-(pyrrolidin-1-yl)-5,7-dihydro-6H-pyrrolo[3,4-d]pyrimidine-6-carbonitrile]	1000 to 10000 nM
CN1CCN(C(=O)Nc2cc3c(c(-c4ccccc4)c2)CN(C#N)C3)CC1 [Example 60, N-(2-cyano-7-phenylisoindolin-5-yl)-4-methylpiperazine-1-carboxamide]	< 1000 nM
N#CN1Cc2cccc(-c3cccc4c3C(=O)NCC4)c2C1 [Example 69, 4-(1-oxo-1,2,3,4-tetrahydroisoquinolin-8-yl)isoindoline-2-carbonitrile]	1000 to 10000 nM
CN1CC(c2cc3c(c(-c4ccccc4)c2)CN(C#N)C3)CCC1=O (centres unmarked) [Example 262, 6-(1-methyl-6-oxopiperidin-3-yl)-4-phenylisoindoline-2-carbonitrile]	1000 to 10000 nM
C[C@@H](NC(=O)c1cccc(-c2cccc3c2CN(C#N)C3)c1)c1ccccc1 [Example 76, (R)-3-(2-cyanoisoindolin-4-yl)-N-(1-phenylethyl)benzamide]	1000 to 10000 nM
